Measured values published in US11019818B2, “Herbicidal 3-substituted lactams” (FMC Corporation, priority 2017, dated 2021).

Key:
Assay type in all cases: in vivo
kochia (Kochia scoparia) [1] = test: Test A preemergence, kochia; conditions: 0 to 100 scale (0 no effect, 100 complete control), approx. 10 d
From the text: (§1) Seeds of plant species selected from barnyardgrass (Echinochloa crus-galli), kochia (Kochia scoparia), ragweed (common ragweed, Ambrosia elatior), ryegrass, Italian (Italian ryegrass, Lolium multiflorum), foxtail, green (green foxtail, Setaria viridis), and pigweed (Amaranthus retroflexus) were planted into a blend of loam soil and sand and treated preemergence with a directed soil spray using test chemicals formulated in a non-phytotoxic solvent mixture which included a surfactant. At the same time, plants selected from these weed species and also wheat (Triticum aestivum), corn (Zea mays), blackgrass (Alopecurus myosuroides), and galium (catchweed bedstraw, Galium aparine) were planted in pots containing the same blend of loam soil and sand and treated with postemergence applications of test chemicals formulated in the same manner. Plants ranged in height from 2 to 10 cm and were in the one- to two-leaf stage for the postemergence treatment. Treated plants and untreated controls were maintained in a greenhouse for approximately 10 d, after which time all treated plants were compared to untreated controls and visually evaluated for injury. Plant response ratings, summarized in Table A, are based on a 0 to 100 scale where 0 is no effect and 100 is complete control. A dash (-) response means no test result.

[2] = test system: ragweed (common ragweed, Ambrosia elatior); test: Test A postemergence, ragweed; conditions: 0 to 100 scale (0 no effect, 100 complete control), approx. 10 d
From the text: as §1

[3] = test system: sedge, umbrella (small-flower umbrella sedge, Cyperus difformis); test: Test B flooded paddy test, umbrella sedge; conditions: Flood, 250 g ai/ha; applied to paddy water at 2-leaf stage; visual rating after 13 to 15 d; scale 0 to 100, 0 is no effect, 100 is complete control
Experimental: (§2) Plant species in the flooded paddy test selected from rice (Oryza sativa), sedge, umbrella (small-flower umbrella sedge, Cyperus difformis), ducksalad (Heteranthera limosa), and barnyardgrass (Echinochloa crus-galli) were grown to the 2-leaf stage for testing. At time of treatment, test pots were flooded to 3 cm above the soil surface, treated by application of test compounds directly to the paddy water, and then maintained at that water depth for the duration of the test. Treated plants and controls were maintained in a greenhouse for 13 to 15 d, after which time all species were compared to controls and visually evaluated. Plant response ratings, summarized in Table B, are based on a scale of 0 to 100 where 0 is no effect and 100 is complete control. A dash (-) response means no test result.

[4] = test system: pigweed (Amaranthus retroflexus); test: Test A postemergence, pigweed; conditions: 0 to 100 scale (0 no effect, 100 complete control), approx. 10 d
From the text: as §1

[5] = test system: foxtail, green (green foxtail, Setaria viridis); test: Test A postemergence, green foxtail; conditions: 0 to 100 scale (0 no effect, 100 complete control), approx. 10 d
From the text: as §1

[6] = test system: ryegrass, Italian (Italian ryegrass, Lolium multiflorum); test: Test A postemergence, Italian ryegrass; conditions: 0 to 100 scale (0 no effect, 100 complete control), approx. 10 d
From the text: as §1

rice (Oryza sativa) = test: Test B flooded paddy test, rice; conditions: Flood, 250 g ai/ha; applied to paddy water at 2-leaf stage; visual rating after 13 to 15 d; scale 0 to 100, 0 is no effect, 100 is complete control
Experimental: as §2

[7] = test system: blackgrass (Alopecurus myosuroides); test: Test A postemergence, blackgrass; conditions: 0 to 100 scale (0 no effect, 100 complete control), approx. 10 d
From the text: as §1

[8] = test system: wheat (Triticum aestivum); test: Test A postemergence, wheat; conditions: 0 to 100 scale (0 no effect, 100 complete control), approx. 10 d
From the text: as §1

[9] = test system: barnyardgrass (Echinochloa crus-galli); test: Test B flooded paddy test, barnyardgrass; conditions: Flood, 250 g ai/ha; applied to paddy water at 2-leaf stage; visual rating after 13 to 15 d; scale 0 to 100, 0 is no effect, 100 is complete control
Experimental: as §2

[10] = test system: barnyardgrass (Echinochloa crus-galli); test: Test A postemergence, barnyardgrass; conditions: 0 to 100 scale (0 no effect, 100 complete control), approx. 10 d
From the text: as §1

[11] = test system: ryegrass, Italian (Italian ryegrass, Lolium multiflorum); test: Test A preemergence, Italian ryegrass; conditions: 0 to 100 scale (0 no effect, 100 complete control), approx. 10 d
From the text: as §1

[12] = test system: ragweed (common ragweed, Ambrosia elatior); test: Test A preemergence, ragweed; conditions: 0 to 100 scale (0 no effect, 100 complete control), approx. 10 d
From the text: as §1

[13] = test system: pigweed (Amaranthus retroflexus); test: Test A preemergence, pigweed; conditions: 0 to 100 scale (0 no effect, 100 complete control), approx. 10 d
From the text: as §1

[14] = test system: barnyardgrass (Echinochloa crus-galli); test: Test A preemergence, barnyardgrass; conditions: 0 to 100 scale (0 no effect, 100 complete control), approx. 10 d
From the text: as §1

corn (Zea mays) = test: Test A postemergence, corn; conditions: 0 to 100 scale (0 no effect, 100 complete control), approx. 10 d
From the text: as §1

kochia (Kochia scoparia) [15] = test: Test A postemergence, kochia; conditions: 0 to 100 scale (0 no effect, 100 complete control), approx. 10 d
From the text: as §1

[16] = test system: foxtail, green (green foxtail, Setaria viridis); test: Test A preemergence, green foxtail; conditions: 0 to 100 scale (0 no effect, 100 complete control), approx. 10 d
From the text: as §1

[17] = test system: ducksalad (Heteranthera limosa); test: Test B flooded paddy test, ducksalad; conditions: Flood, 250 g ai/ha; applied to paddy water at 2-leaf stage; visual rating after 13 to 15 d; scale 0 to 100, 0 is no effect, 100 is complete control
Experimental: as §2

[18] = test system: galium (catchweed bedstraw, Galium aparine); test: Test A postemergence, galium; conditions: 0 to 100 scale (0 no effect, 100 complete control), approx. 10 d
From the text: as §1

Row | Compound | Plant response rating, Kochia (kochia (Kochia scoparia) [1]; 31 g ai/ha) | Plant response rating, Kochia (kochia (Kochia scoparia) [1]; 125 g ai/ha) | Plant response rating, Ragweed ([2]; 31 g ai/ha) | Plant response rating, Ragweed ([2]; 125 g ai/ha) | Plant response rating, Sedge, Umbrella [3] | Plant response rating, Pigweed ([4]; 31 g ai/ha) | Plant response rating, Pigweed ([4]; 125 g ai/ha) | Plant response rating, Foxtail, Green ([5]; 31 g ai/ha) | Plant response rating, Foxtail, Green ([5]; 125 g ai/ha) | Plant response rating, Ryegrass, Italian ([6]; 31 g ai/ha) | Plant response rating, Ryegrass, Italian ([6]; 125 g ai/ha) | Plant response rating, Rice (rice (Oryza sativa)) | Plant response rating, Blackgrass ([7]; 31 g ai/ha) | Plant response rating, Blackgrass ([7]; 125 g ai/ha) | Plant response rating, Wheat ([8]; 31 g ai/ha) | Plant response rating, Wheat ([8]; 125 g ai/ha) | Plant response rating, Barnyardgrass [9] | Plant response rating, Barnyardgrass ([10]; 31 g ai/ha) | Plant response rating, Barnyardgrass ([10]; 125 g ai/ha) | Plant response rating, Ryegrass, Italian ([11]; 31 g ai/ha) | also measured
1 | CCNC(=O)C1(C(=O)Nc2cccc(F)c2F)C(=O)N(C)CC1c1ccc(C(F)(F)F)cc1 (stereo not drawn) [Compound 7] | 0 | 0 | 0 | 0 | 0 | 10 | 30 | 0 | 20 | 0 | 10 | 30 | 0 | 0 | 0 | 0 | 0 | 0 | 10 | 0 | Plant response rating, Ryegrass, Italian ([11]; 125 g ai/ha): 0; Plant response rating, Ragweed ([12]; 31 g ai/ha): 0; Plant response rating, Ragweed ([12]; 125 g ai/ha): 0; Plant response rating, Pigweed ([13]; 31 g ai/ha): 0; Plant response rating, Pigweed ([13]; 125 g ai/ha): 10; Plant response rating, Barnyardgrass ([14]; 31 g ai/ha): 0; Plant response rating, Barnyardgrass ([14]; 125 g ai/ha): 70; Plant response rating, Corn (corn (Zea mays); 31 g ai/ha): 0; Plant response rating, Corn (corn (Zea mays); 125 g ai/ha): 0; Plant response rating, Kochia (kochia (Kochia scoparia) [15]; 31 g ai/ha): 0; Plant response rating, Kochia (kochia (Kochia scoparia) [15]; 125 g ai/ha): 0; Plant response rating, Foxtail, Green ([16]; 31 g ai/ha): 0; Plant response rating, Foxtail, Green ([16]; 125 g ai/ha): 80; Plant response rating, Ducksalad [17]: 75; Plant response rating, Galium ([18]; 31 g ai/ha): 0; Plant response rating, Galium ([18]; 125 g ai/ha): 30
2 | CC(C)NC(=O)C1(C(=O)Nc2cccc(F)c2F)C(=O)N(C)CC1c1ccc(C(F)(F)F)cc1 (stereo not drawn) [Compound 8] | 0 | 0 | 0 | 0 | 0 | 0 | 0 | 0 | 0 | 0 | 0 | 0 | 0 | 0 | 0 | 0 | 0 | 0 | 0 | 0 | Plant response rating, Ryegrass, Italian ([11]; 125 g ai/ha): 0; Plant response rating, Ragweed ([12]; 31 g ai/ha): 0; Plant response rating, Ragweed ([12]; 125 g ai/ha): 0; Plant response rating, Pigweed ([13]; 31 g ai/ha): 0; Plant response rating, Pigweed ([13]; 125 g ai/ha): 0; Plant response rating, Barnyardgrass ([14]; 31 g ai/ha): 0; Plant response rating, Barnyardgrass ([14]; 125 g ai/ha): 0; Plant response rating, Corn (corn (Zea mays); 31 g ai/ha): 0; Plant response rating, Corn (corn (Zea mays); 125 g ai/ha): 0; Plant response rating, Kochia (kochia (Kochia scoparia) [15]; 31 g ai/ha): 0; Plant response rating, Kochia (kochia (Kochia scoparia) [15]; 125 g ai/ha): 0; Plant response rating, Foxtail, Green ([16]; 31 g ai/ha): 0; Plant response rating, Foxtail, Green ([16]; 125 g ai/ha): 0; Plant response rating, Ducksalad [17]: 0; Plant response rating, Galium ([18]; 31 g ai/ha): 0; Plant response rating, Galium ([18]; 125 g ai/ha): 0
3 | CN(C)CC1(C(=O)Nc2cccc(F)c2F)C(=O)N(C)CC1c1ccc(C(F)(F)F)cc1 (stereo not drawn) [Compound 9] | 30 | 70 | 30 | 30 | 0 | 30 | 80 | 50 | 90 | 50 | 60 | 0 | 50 | 60 | 30 | 60 | 65 | 70 | 90 | 60 | Plant response rating, Ryegrass, Italian ([11]; 125 g ai/ha): 80; Plant response rating, Ragweed ([12]; 31 g ai/ha): 0; Plant response rating, Ragweed ([12]; 125 g ai/ha): 60; Plant response rating, Pigweed ([13]; 31 g ai/ha): 70; Plant response rating, Pigweed ([13]; 125 g ai/ha): 80; Plant response rating, Barnyardgrass ([14]; 31 g ai/ha): 90; Plant response rating, Barnyardgrass ([14]; 125 g ai/ha): 90; Plant response rating, Corn (corn (Zea mays); 31 g ai/ha): 40; Plant response rating, Corn (corn (Zea mays); 125 g ai/ha): 50; Plant response rating, Kochia (kochia (Kochia scoparia) [15]; 31 g ai/ha): 50; Plant response rating, Kochia (kochia (Kochia scoparia) [15]; 125 g ai/ha): 70; Plant response rating, Foxtail, Green ([16]; 31 g ai/ha): 90; Plant response rating, Foxtail, Green ([16]; 125 g ai/ha): 90; Plant response rating, Ducksalad [17]: 95; Plant response rating, Galium ([18]; 31 g ai/ha): 60; Plant response rating, Galium ([18]; 125 g ai/ha): 60
4 | (3S,4R)-3-acetyl-N-(2,3-difluorophenyl)-1-methyl-2-oxo-4-[4-(trifluoromethyl)phenyl]-3-pyrrolidinecarboxamide [Compound 3] | 0 | 50 | 0 | 40 | 0 | 40 | 60 | 0 | 60 | 40 | 50 | 10 | 20 | 30 | 0 | 40 | 45 | 40 | 70 | 20 | Plant response rating, Ryegrass, Italian ([11]; 125 g ai/ha): 40; Plant response rating, Ragweed ([12]; 31 g ai/ha): 0; Plant response rating, Ragweed ([12]; 125 g ai/ha): 20; Plant response rating, Pigweed ([13]; 31 g ai/ha): 20; Plant response rating, Pigweed ([13]; 125 g ai/ha): 100; Plant response rating, Barnyardgrass ([14]; 31 g ai/ha): 80; Plant response rating, Barnyardgrass ([14]; 125 g ai/ha): 90; Plant response rating, Corn (corn (Zea mays); 31 g ai/ha): 10; Plant response rating, Corn (corn (Zea mays); 125 g ai/ha): 80; Plant response rating, Kochia (kochia (Kochia scoparia) [15]; 31 g ai/ha): 0; Plant response rating, Kochia (kochia (Kochia scoparia) [15]; 125 g ai/ha): 60; Plant response rating, Foxtail, Green ([16]; 31 g ai/ha): 90; Plant response rating, Foxtail, Green ([16]; 125 g ai/ha): 90; Plant response rating, Ducksalad [17]: 80; Plant response rating, Galium ([18]; 31 g ai/ha): 40; Plant response rating, Galium ([18]; 125 g ai/ha): 50
